Results as given in PMC4339887, “Selective Sirt2 inhibition by ligand-induced rearrangement of the active site” (Nature Communications, 2015).
“Also recorded” adds a separate entry of the source.

Tests used:
[1] = biological target: T1, human Sirt2 (Homo sapiens, UniProt Q8IXJ6); assay: HPLC-based conversion assay, non-labelled acetyl-lysine α-tubulin peptide; details: SirReal2 100 μM, non-labelled acetyl-lysine oligopeptide
T1 sequence (Q8IXJ6 25-389): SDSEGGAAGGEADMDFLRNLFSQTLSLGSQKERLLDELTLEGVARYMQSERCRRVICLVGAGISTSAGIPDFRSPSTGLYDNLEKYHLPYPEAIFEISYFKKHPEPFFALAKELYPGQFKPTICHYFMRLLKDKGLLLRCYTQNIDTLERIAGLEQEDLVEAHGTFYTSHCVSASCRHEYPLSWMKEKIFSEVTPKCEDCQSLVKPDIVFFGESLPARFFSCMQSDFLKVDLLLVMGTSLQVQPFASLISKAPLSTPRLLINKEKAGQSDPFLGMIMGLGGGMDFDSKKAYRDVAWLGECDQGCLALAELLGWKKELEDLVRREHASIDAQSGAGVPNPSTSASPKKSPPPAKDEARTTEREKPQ

[2] = biological target: T2, human Sirt3 (Homo sapiens, UniProt Q9NTG7); assay: as above; details: 100 μM, acetyl-lysine substrate
T2 sequence (Q9NTG7 118-395): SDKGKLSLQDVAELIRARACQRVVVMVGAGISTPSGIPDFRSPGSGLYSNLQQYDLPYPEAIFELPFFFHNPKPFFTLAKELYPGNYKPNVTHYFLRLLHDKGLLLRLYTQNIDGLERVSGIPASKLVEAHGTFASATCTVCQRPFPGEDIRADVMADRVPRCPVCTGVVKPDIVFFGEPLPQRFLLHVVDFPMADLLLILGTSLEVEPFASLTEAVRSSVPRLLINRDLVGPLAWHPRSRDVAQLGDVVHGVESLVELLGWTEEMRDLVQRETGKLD

[3] = biological target: T3, KDAC1 (Homo sapiens, UniProt Q13547); assay: in vitro KDAC1/6 assay, substrate ZMAL; type: biochemical
T3 construct: purchased Enzo Life Sciences
T3 sequence (Q13547 whole entry): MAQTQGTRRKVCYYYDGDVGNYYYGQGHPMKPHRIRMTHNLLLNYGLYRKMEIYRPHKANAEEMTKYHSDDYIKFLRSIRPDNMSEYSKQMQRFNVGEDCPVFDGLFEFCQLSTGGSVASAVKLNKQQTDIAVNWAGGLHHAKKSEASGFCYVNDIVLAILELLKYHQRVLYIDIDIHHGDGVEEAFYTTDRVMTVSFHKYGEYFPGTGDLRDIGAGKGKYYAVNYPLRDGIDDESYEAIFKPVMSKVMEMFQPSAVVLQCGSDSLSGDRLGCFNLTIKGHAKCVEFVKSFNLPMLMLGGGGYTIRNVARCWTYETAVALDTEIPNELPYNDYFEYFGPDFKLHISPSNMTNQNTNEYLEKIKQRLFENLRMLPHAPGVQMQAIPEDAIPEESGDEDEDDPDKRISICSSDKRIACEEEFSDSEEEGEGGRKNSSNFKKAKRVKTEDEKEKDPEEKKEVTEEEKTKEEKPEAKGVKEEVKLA
Procedure: (§1) 5 times), Fmoc deprotection and amino acid coupling were repeated until the last amino acid was coupled and the Fmoc group was removed. The resin was washed with dichloromethane (DCM, 3 min, 5 times), methanol (5 min, 3 times) and DCM (3 min, 5 times). […]
(§2) acid (TFA) at RT (1 h, 2 times). Cleaved peptide was precipitated with cold diethylether, filtrated and dried. The peptide was purified by semi-preparative HPLC (Merck-Hitachi High Speed LC system) using a Merck Hibar LiChrosorb RP-8 column (250–25 mm, 7 μm). For separation a linear gradient from 20–50% (vol/vol) acetonitrile (ACN) with 0.1% (vol/vol) TFA in 60 min was applied (flow-rate: 8 ml min-1). […]
(§3) high-throughput fluorescence-based assay using the substrate ZMAL (Z-Lys(Acetyl)- […]
(§4) A solution that contained DMSO was used a negative
(§5) The reaction was started through the addition of KDAC1 (Enzo Life Sciences, 10 μL) or […]
(§6) initial state conditions the substrate conversion was adjusted to 10–30% prior to inhibition tests. The reaction was stopped by the addition of a solution containing trypsin and TSA […]
(§7) Then fluorescence intensity of the released fluorophore of the deacetylated lysine derivative was measured in a microplate […]
(§8) reader (BMG Polarstar, Oex 390 nm, Oem 460 nm). The amount of inhibition was determined with respect to the mixture with only DMSO.
(§9) Immunocytochemistry equipment and settings. […]

[4] = biological target: T4, KDAC6 (Homo sapiens, UniProt Q9UBN7); assay: in vitro KDAC1/6 assay, substrate ZMAL; type: biochemical
T4 construct: purchased Enzo Life Sciences
T4 sequence (Q9UBN7 1-1215): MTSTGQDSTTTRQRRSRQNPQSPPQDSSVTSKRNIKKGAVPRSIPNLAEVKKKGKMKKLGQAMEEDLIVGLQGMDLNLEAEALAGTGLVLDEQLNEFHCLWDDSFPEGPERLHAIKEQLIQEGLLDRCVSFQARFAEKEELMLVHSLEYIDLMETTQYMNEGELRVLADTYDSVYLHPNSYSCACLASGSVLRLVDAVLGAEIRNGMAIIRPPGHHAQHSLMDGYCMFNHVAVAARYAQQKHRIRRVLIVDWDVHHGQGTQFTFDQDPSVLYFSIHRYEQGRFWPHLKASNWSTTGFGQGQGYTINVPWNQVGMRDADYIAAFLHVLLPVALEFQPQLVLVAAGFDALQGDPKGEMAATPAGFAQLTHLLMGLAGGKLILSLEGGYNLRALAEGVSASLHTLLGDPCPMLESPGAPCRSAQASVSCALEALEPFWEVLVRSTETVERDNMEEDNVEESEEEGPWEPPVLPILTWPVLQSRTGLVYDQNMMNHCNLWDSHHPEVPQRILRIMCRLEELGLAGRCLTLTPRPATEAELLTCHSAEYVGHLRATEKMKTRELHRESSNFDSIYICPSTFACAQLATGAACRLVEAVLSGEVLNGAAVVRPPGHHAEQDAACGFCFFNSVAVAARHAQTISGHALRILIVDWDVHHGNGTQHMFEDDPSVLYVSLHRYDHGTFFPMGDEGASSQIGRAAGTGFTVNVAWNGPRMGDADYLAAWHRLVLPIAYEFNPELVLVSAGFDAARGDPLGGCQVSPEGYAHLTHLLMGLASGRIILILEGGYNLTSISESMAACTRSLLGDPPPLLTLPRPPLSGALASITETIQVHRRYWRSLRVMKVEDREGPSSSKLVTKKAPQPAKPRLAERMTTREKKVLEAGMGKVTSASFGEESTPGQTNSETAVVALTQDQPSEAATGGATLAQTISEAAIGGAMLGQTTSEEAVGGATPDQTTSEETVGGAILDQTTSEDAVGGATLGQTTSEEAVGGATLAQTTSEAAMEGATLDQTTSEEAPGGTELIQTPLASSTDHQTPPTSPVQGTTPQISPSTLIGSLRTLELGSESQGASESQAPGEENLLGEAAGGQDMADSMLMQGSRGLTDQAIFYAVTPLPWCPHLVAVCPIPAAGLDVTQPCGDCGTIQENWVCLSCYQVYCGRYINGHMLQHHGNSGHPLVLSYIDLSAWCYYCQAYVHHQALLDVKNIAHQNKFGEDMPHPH
Procedure: as §1, §2, §3, §4, §5, §6, §7, §8, §9

Q: For `Cc1cc(C)nc(SCC(=O)Nc2ncc(Cc3cccc4ccccc34)s2)n1` [SirReal2], which “activity of Sirt2” value [1] is on record?
A: Its value is “substantially reduced”.

Q: And the “effect on activity of Sirt3” value [2]?
A: Its value is “very little effect”.

Q: And the “activity of KDAC1” value [3]?
A: Its value is “does not affect”.

Q: And the “activity of KDAC6” value [4]?
A: The value was “does not affect; also recorded: not affected”.
